Measurements reported in paper PMC8901748, “A novel prostaglandin E receptor 4 (EP4) small molecule antagonist induces articular cartilage regeneration” (Cell Discovery, 2022).

Assays:
STAT-Luc in ATDC5 cells = assay: STAT-Luc luciferase reporter assay; format: cell-based, mouse; settings: 2 ng/ml IL-1β, 30 μM HL-43, 6 h
Method: Six firefly luciferase reporters were used in the Luciferase assay, including CRE-Luc (PathDetect CRE cis-Reporting System; Stratagene, La Jolla CA) driven by a basic promoter (TATA box) plus four repeats of CRE; Sox9 promoter-Luc contains human SOX9 proximal promoter region (−1034 bp to +67 bp)[45]; 4 × 48-p89-Luc, mouse Col2a1 minimal promoter. AP-1-Luc, Nf-κb-Luc, STAT-Luc were obtained from Stratagene. Chondrocytes were cultured in 24-well plates and 300 ng firefly luciferase reporter constructs were transiently transfected using transfection reagent TransExellent-DNA (Cenji Biotech Inc, China) following manufacturer’s instruction, and 15 ng of the Copia-Renilla luciferase reporter was co-transfected as a normalization control. Cells were treated with the indicated reagents for 48 h after transfection. The Dual-Luciferase measurements were performed in triplicate using the Luciferase assay kit (Promega) and a LUMIstar Omega luminometer (BMG Labtech, Mornington, Australia).

articular cartilage = assay: Aging-induced cartilage defect (CD) mouse model; format: in vivo, mice (strain C57/BL/6); settings: 19-month-old mice, 30 mg/kg daily by gavage for 3 months
Method: WT male mice (strain C57/BL/6) were raised under identical conditions until 19 months. The vehicle, Celecoxib, and HL-43 were administered to mice at 30 mg/kg daily by gavage from 19 to 22 month, n = 9 for vehicle and HL-43-treated groups, n = 6 for Celecoxib treated group.
Knee joints of mice were fixed for 24 h in 4% paraformaldehyde (wt/vol), dehydrated into 100% ethanol, and decalcified for 1 week in 0.5 M EDTA pH 8.0. Paraffin-embedded tissue was sectioned (7 μm) and stained with Safranin O and Hematoxylin & Eosin (H&E) according to standard procedures. The OARSI histologic scoring of OA in the mouse was used to measure the cartilage and synovial damage of OA[71],[77]. Immunohistochemical staining for Col2a1, ColX, Sox9, p-CREB, and CREB were routinely performed and follow previous description. […] Histomorphometry and quantification were performed using ImageJ software. Quantification of Mmp13, ColX, Sox9 positive regions were quantified as the positive area/total cartilage area per field of view under ×40 objective magnification.

[1] = system: Mmp3, Mmp13, Col2, p-CREB, p-STAT3, p-p65, IκBα in primary mouse chondrocytes; assay: Western blotting in primary articular chondrocytes; format: cell-based
Method: ATDC5 cell line was purchased from Riken BioResource Center (Tsukuba, Japan) and grown in a 1:1 mixture of DMEM/F12 medium (Corning, 10-092-CVR) supplemented with 5% fetal bovine serum (Gibco, 10099, USA) and 1% penicillin-streptomycin solution (Life Technologies). Cells were maintained at 37 °C under 5% CO2. Primary chondrocytes were obtained from knee joint cartilage of newborn mice. Knee joints were dissected from the tibia plateau and femoral condyle articular cartilage of mouse pups and digested in 0.1% collagenase type II (Sigma) overnight at 37 °C and chondrocytes were harvested by centrifugation. Primary chondrocytes were cultured at a density of 5 × 10^3 cells per ml at 37 °C with 5% CO2. DMEM/F12 medium with 10% fetal bovine serum (FBS) and 1% penicillin–streptomycin was used to culture the primary chondrocytes. Chondrogenic differentiation were induced with chondrogenic medium, which contains insulin-transferrin-selenium (ITS) (Sigma, I3146), 10 ng/ml TGF-β3 (PEPROTECH, 100-36E, USA), 100 nM Dexamethasone (Sigma, D4902), 50 μg/ml VC (Sigma), 1 mM sodium pyruvate (Sigma) and 40 μg/ml proline (Sigma), and/or treatment with rmIL-1β (R&D, 401-ML/CF), TNFα (PEPROTECH, 300-01A-50) in DMEM/F12 for indicated days. Western blotting was performed according to standard protocols. Antibodies used were: rabbit anti-Mmp3 (1:1000, HuaBio), rabbit anti-Mmp13 (1:500, abcam, ab39012), rabbit anti-p-CREB (1:2000, Cell Signaling Technology, 87G3), rabbit anti-CREB (1:2000, Cell Signaling Technology, 48H2), mouse anti-GAPDH (1:5000; Sigma-Aldrich, G8795), rabbit anti-Col2 (Abcam, Ab34712), rabbit anti-STAT3 (1:2000; Abcam, ab68153), rabbit anti-p-STAT3 (Y705) (1:2000; Abcam, ab76315), rabbit anti -p65 (1:1000; CST, 3034), rabbit anti-p-p65 (1:1000; CST, 3033), and rabbit anti-IκBα (1:1000; Abways, CY5026).

[2] = system: mouse femoral head cartilage explants; assay: Mouse femoral head cartilage explant culture; format: cell-based; settings: 1 ng/ml IL-1β, 48 h

C[C@H](NC(=O)c1c(-c2ccccc2)nnn1CCOc1ccc(F)cc1)c1ccc(C(=O)O)cc1 [HL-43]
STAT luciferase reporter activity (STAT-Luc in ATDC5 cells): significantly inhibited | Cartilage integrity and articular cartilage thickness (articular cartilage): notably preserved cartilage integrity and had thicker articular cartilage | Phosphorylation of CREB by Western blotting ([1]; chondrocytes, 2 ng/ml IL-1β, 100 nM PGE2, 1 h): enhanced by HL-43 in a dose-dependent manner | Mmp3/13 expression by Western blotting ([1]; primary articular chondrocytes, 1 ng/ml IL-1β, 24 h): downregulated Mmp3/13 expression in a dose-dependent manner | Phosphorylation of STAT3 ([1]; primary mouse articular chondrocytes, 2 ng/ml IL-1β, 1 h): reduced the phosphorylation of STAT3 | Phosphorylation of p65 and degradation of IκBα ([1]; primary mouse articular chondrocytes, IL-1β, 30 μM HL-43, 1 h): little effects | Col2 expression by Western blotting ([1]; primary mouse chondrocytes, 24 h): dose-dependently induced Col2 expression | Mmp13 immunohistochemistry staining [2]: reduced immunohistochemistry staining for the catabolic marker Mmp13 | Proteoglycan content by S.O. staining [2]: favorable effect on the proteoglycan content
